{"source": "patent US7718382B2", "about": "“Method for identifying compounds for treatment of pain” (Universite Laval, priority 2004, dated 2010)", "system": "pain hypersensitivity (allodynia) after chronic constriction injury to the sciatic nerve", "assay": "Von Frey 50% withdrawal threshold in rats with chronic constriction injury to the sciatic nerve (neuropathic pain)", "format": "in vivo, Sprague-Dawley rats", "details": "allodynic rats, 500 ng single intrathecal injection", "protocol": "Eleven adult, Sprague-Dawley rats received an experimental chronic constriction injury to the sciatic nerve (Mosconi & Kruger, 1996, Pain 64:37-57). Pain hypersensitivity, indicative of neuropathic pain, increased progressively over a two week interval and was monitored using the Von Frey technique (Chaplan et al., 1994, J. Neurosci. Methods 53:55-63). Following the development of allodynia (characterized by a 50% withdrawal threshold (WD50) of ≦2.0 g), rats were administered 500 ng tricyclodecan-9-yl-xanthogenate by intrathecal catheter, the tricyclodecan-9-yl-xanthogenate was prepared in a solution of saline (0.9% NaCl) with 10% v/v dimethyl sulfoxide. Tricyclodecan-9-yl-xanthogenate is available from EMD Biosciences (a division of Calbiochem). A solution of saline (0.9% NaCl) with 10% v/v dimethyl sulfoxide was injected into control rats as a vehicle. The volume of the vehicle administered was the same as for the PLCγ inhibitor solution.\nSeven allodynic rats received single intrathecal injections of a vehicle, whereas 4 rats received single injections of tricyclodecan-9-yl-xanthogenate; the mean WD50 for both groups was 1.9±0.2 g prior to injections. […] This significant reduction of pain hypersensitivity persisted for greater than 6 hours."}
{"smiles": "S=C(S)OC1CC2CC1C1CCCC21", "note": "(centres unmarked) [tricyclodecan-9-yl-xanthogenate]", "values": [{"measurement": "persistence of significant reduction of pain hypersensitivity", "value": "greater than 6 hours"}, {"measurement": "50% withdrawal threshold (WD50)", "setting": "4 hours post-injection, pre-injection WD50 1.9±0.2 g, vehicle 4.1±0.7 g, p<0.05", "value": "8.8 ± 2.1", "unit": "g"}]}
